Here are results for two compounds from patent US9155752B2, “Liver function-improving agent” (UENO FINE CHEMICALS INDUSTRY, LTD., priority 2012, dated 2015).

Entries after “also recorded” stand apart in the source; their conditions may differ.

The experiment concerns NASH mice. Nature of the experiment: F4/80 immunostaining of liver, inflammation area % (Test Example 3). Type of experiment: in vivo. Conditions: for Inflammation area %, Significant difference: Bonferroni, 5% level, tendency at 10% level; for Inflammation area % (F4/80 immunostaining), mean ± standard deviation: 8 weeks of age. An excerpt: A solid diet CE-2 (lipid 4.6% by weight, manufactured by CLEA Japan, Inc.) was used as a normal diet. A solid diet, High Fat Diet 32 (lipid 32.0% by weight, sucrose 6.75% by weight, manufactured by CLEA Japan, Inc.), was used as a sucrose-containing high fat diet. As a maltitol-containing high-fat diet, a special diet (lipid 32.0% by weight, maltitol 6.08% by weight; manufactured by CLEA Japan, Inc.) obtained by replacing the total amount (6.75% by weight) of sucrose in a solid diet, High Fat Diet 32, with powdered maltitol (Whole Crystalline Maltitol Ueno 60M (purity of maltitol: 90%), manufactured by Ueno Fine Chemicals Industry Ltd.) was used. Sodium hypochlorite (PURELOX-S, manufactured by OYALOX Co., Ltd.) was added to pure water prepared by Elix-UV pure water producing apparatus, to a final concentration of 0.00009%, so that pure water for use in the test was obtained. An aqueous maltitol solution was prepared by dissolving powdered maltitol (Whole Crystalline Maltitol Ueno 60M (purity of maltitol: 90%), manufactured by Ueno Fine Chemicals Industry Ltd.) in pure water to a concentration of 1.8% (weight/volume). The purity of maltitol in the aqueous maltitol solution was 1.62%. Twenty-one female SPF mice (C57BL/6J, produced by CLEA Japan, Inc.) on day 14 of pregnancy were purchased and acclimation was performed. All animals were allowed to make a natural birth and a born male was used to produce a model. In addition, the weaning was at 4 weeks after birth. Streptozotocin (Sigma-Aldrich Japan K.K.) was adjusted to a concentration of 10 mg/mL with a physiological saline solution (manufactured by Otsuka Pharmaceutical Factory, Inc.) and the solution was subcutaneously administered once to the back of 2-day-old male mice at a dose of 20 μL/mouse (200 μg/mouse). Afterwards, the mother animal took care of the baby until weaning. The weaning was on day 28±2 after birth. After the weaning, a normal diet was supplied ad libitum to animals receiving no streptozotocin (normal mice (group S1 and group 1)), and a sucrose-containing high fat diet was supplied ad libitum to animals receiving streptozotocin (NASH mice (group S2, group 2, group 3, and group 4). A normal diet was supplied ad libitum to normal mice (group 1). With respect to NASH mice, a sucrose-containing high fat diet was supplied ad libitum to the sucrose group (group 2), and a maltitol-containing high fat diet was supplied ad libitum to the maltitol-low dose group (group 3) and the maltitol-high dose group (group 4). An aqueous maltitol solution was supplied ad libitum only to the maltitol-high dose group (group 4) of 5 to 8 weeks of age, and pure water was supplied ad libitum to the groups other than group 4 of 5 to 8 weeks of age. Six male animals per group were assigned to groups S1 and S2, reared up to 5 weeks of age, and then necropsied. Eight male animals per group were assigned to groups 1, 2, 3 and 4, reared up to 8 weeks of age, and then necropsied. At scheduled necropsy of the animals of 5 or 8 weeks of age, all individuals were anesthetized with diethyl ether (manufactured by Sigma-Aldrich Japan K.K.) and a needle through which heparin sodium (Novo Heparin Injection 1000, manufactured by Mochida Pharmaceutical Co., Ltd.) had been passed was punctured to the heart to aspirate the whole blood, leading to euthanasia, followed by harvest of the organ. […]

For the compound `OC[C@@H](O)[C@@H](O[C@H]1O[C@H](CO)[C@@H](O)[C@H](O)[C@H]1O)[C@H](O)[C@@H](O)CO` [maltitol], the “Inflammation area %, Significant difference” value is “No significant difference and No” (Group 3 (low-dose maltitol) vs sucrose group (group 2)); “tendency to be low; also recorded: Tendency to be different” (Group 4 (high-dose maltitol) vs sucrose group (group 2)). Further, the “Inflammation area % (F4/80 immunostaining), mean ± standard deviation” value (shortened to “Inflammation area % … mean ± standard deviation”) (Group 3, low-dose maltitol: HFD32-M (maltitol 6.08%) + pure water) is 3.04 ± 1.55% and the “Inflammation area % … mean ± standard deviation” value (Group 4, high-dose maltitol: HFD32-M (maltitol 6.08%) + aqueous maltitol solution 1.62%) is 2.46 ± 0.44%.
For the compound `OC[C@H]1O[C@@](CO)(O[C@H]2O[C@H](CO)[C@@H](O)[C@H](O)[C@H]2O)[C@@H](O)[C@@H]1O` [sucrose, reference compound], under “Group 2, sucrose group: HFD32 (sucrose 6.75%) + pure water”, the “Inflammation area % … mean ± standard deviation” value is recorded as 3.28 ± 0.95%.
